In PubChem BioAssay AID248 (DTP/NCI, 2004):
Toxic doses and inconclusive results are not listed. Cut-off read from the data, not from the text of the source: active = T/C of 150% or more; inactive = T/C below 125%.

System: L1210 leukemia ip in BDF1 mice, survival T/C
Assay: NCI In Vivo Anticancer Drug Screen. Data for tumor model L1210 Leukemia (intraperitoneal) in B6D2F1 (BDF1) mice
Details: endpoint: mean survival time, higher = longer survival
Summary of the method: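 Antitumor effect is assessed in tumor-bearing animals. Survival in the compound arm is compared with a vehicle-dosed control arm and expressed as their quotient.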

[1] = dose: 50.0 mg/kg/injection, schedule: Q01DX009 (ip), vehicle: saline
[2] = dose: 100.0 mg/kg/injection, schedule: Q01DX009 (ip), vehicle: saline
[3] = dose: 200.0 mg/kg/injection, schedule: Q01DX009 (ip), vehicle: saline
[4] = dose: 100.0 mg/kg/injection, schedule: Q04DX003 (ip), vehicle: saline with Tween-80
[5] = dose: 200.0 mg/kg/injection, schedule: Q04DX003 (ip), vehicle: saline with Tween-80
[6] = dose: 400.0 mg/kg/injection, schedule: Q04DX003 (ip), vehicle: saline with Tween-80
[7] = dose: 25.0 mg/kg/injection, schedule: Q01DX009 (ip), vehicle: Klucel (hydroxypropylcellulose) (HPC)
[8] = dose: 50.0 mg/kg/injection, schedule: Q01DX009 (ip), vehicle: Klucel (hydroxypropylcellulose) (HPC)
[9] = dose: 100.0 mg/kg/injection, schedule: Q01DX009 (ip), vehicle: saline with Tween-80
[10] = dose: 200.0 mg/kg/injection, schedule: Q01DX009 (ip), vehicle: saline with Tween-80
[11] = dose: 400.0 mg/kg/injection, schedule: Q01DX009 (ip), vehicle: saline with Tween-80
[12] = dose: 100.0 mg/kg/injection, schedule: Q01DX009 (ip), vehicle: Klucel (hydroxypropylcellulose) (HPC)
[13] = dose: 100.0 mg/kg/injection, schedule: Q04DX003 (ip), vehicle: Klucel (hydroxypropylcellulose) (HPC)
[14] = dose: 200.0 mg/kg/injection, schedule: Q04DX003 (ip), vehicle: Klucel (hydroxypropylcellulose) (HPC)
[15] = dose: 400.0 mg/kg/injection, schedule: Q04DX003 (ip), vehicle: Klucel (hydroxypropylcellulose) (HPC)

Measured: T/C

COC(=O)n1nc2ccccc2c1N
inactive: [1] 96 % of control | [2] 96 % of control | [3] 93 % of control

CCCCN(C(=O)C(F)(F)F)C(C)(C)C(SSSC(c1cccs1)C(C)(C)N(CCCC)C(=O)C(F)(F)F)c1cccs1 (stereo not given)
inactive: dose: 100.0 mg/kg/injection, schedule: Q01DX009 (ip), vehicle: saline sonified 94 % of control | dose: 100.0 mg/kg/injection, schedule: Q04DX003 (ip), vehicle: saline sonified 90 % of control | dose: 200.0 mg/kg/injection, schedule: Q01DX009 (ip), vehicle: saline sonified 96 % of control | dose: 200.0 mg/kg/injection, schedule: Q04DX003 (ip), vehicle: saline sonified 93 % of control | dose: 400.0 mg/kg/injection, schedule: Q04DX003 (ip), vehicle: saline sonified 90 % of control

CC12CCC3C(CC4OC45CC(O)CCC35C)C1CCC21CO1 (stereo not given)
inactive: dose: 50.0 mg/kg/injection, schedule: Q01DX001 (sc), vehicle: steriod suspending solution 98 % of control | dose: 100.0 mg/kg/injection, schedule: Q01DX001 (sc), vehicle: steriod suspending solution 104 % of control | dose: 200.0 mg/kg/injection, schedule: Q01DX001 (sc), vehicle: steriod suspending solution 95 % of control | dose: 400.0 mg/kg/injection, schedule: Q01DX001 (sc), vehicle: steriod suspending solution 101 % of control

O=C(NCCCl)NC1CCCCC1O (stereo not given)
inactive: dose: 100.0 mg/kg/injection, schedule: Q04DX002 (ip), vehicle: saline 98 % of control | dose: 200.0 mg/kg/injection, schedule: Q04DX002 (ip), vehicle: saline 91 % of control | dose: 400.0 mg/kg/injection, schedule: Q04DX002 (ip), vehicle: saline 102 % of control

CCOC(=O)C1CCN(C(=O)c2ccccc2)c2scc(-c3ccccc3)c2C1=O (stereo not given)
inactive: dose: 50.0 mg/kg/injection, schedule: Q04DX003 (ip), vehicle: saline with Tween-80 94 % of control | [4] 100 % of control | [5] 92 % of control | [6] 97 % of control

O=C1NC(C2CC3C=CC2C3)Nc2ccccc21 (stereo not given)
inactive: dose: 12.5 mg/kg/injection, schedule: Q01DX009 (ip), vehicle: Klucel (hydroxypropylcellulose) (HPC) 100 % of control | dose: 12.5 mg/kg/injection, schedule: Q04DX003 (ip), vehicle: Klucel (hydroxypropylcellulose) (HPC) 111 % of control | [7] 101 % of control | dose: 25.0 mg/kg/injection, schedule: Q04DX003 (ip), vehicle: Klucel (hydroxypropylcellulose) (HPC) 103 % of control | [8] 96 % of control | dose: 50.0 mg/kg/injection, schedule: Q04DX003 (ip), vehicle: Klucel (hydroxypropylcellulose) (HPC) 103 % of control

O=C(CCC(C(=O)c1ccccc1)c1ccccc1)c1ccc(-c2ccccc2)cc1 (stereo not given)
inactive: dose: 87.5 mg/kg/injection, schedule: Q01DX009 (ip), vehicle: Klucel (hydroxypropylcellulose) (HPC) 94 % of control

C1=Cc2cccc3c2N(C1)CCC3 (tested in a mixture with another compound)
inactive: [9] 103 % of control | [4] 109 % of control | [10] 107 % of control | [5] 93 % of control | [11] 95 % of control | [6] 98 % of control

Cc1cc(=O)[nH]c(N/N=C/c2c(O)ccc3ccccc23)n1
inactive: dose: 100.0 mg/kg/injection, schedule: Q01DX001 (ip), vehicle: saline 96 % of control | dose: 200.0 mg/kg/injection, schedule: Q01DX001 (ip), vehicle: saline 94 % of control | dose: 400.0 mg/kg/injection, schedule: Q01DX001 (ip), vehicle: saline 89 % of control

CC(=O)Nc1cc(F)cc(F)c1Br
inactive: dose: 100.0 mg/kg/injection, schedule: Q01DX001 (ip), vehicle: carboxymethylcellulose (CMC) 105 % of control | dose: 200.0 mg/kg/injection, schedule: Q01DX001 (ip), vehicle: carboxymethylcellulose (CMC) 102 % of control | dose: 400.0 mg/kg/injection, schedule: Q01DX001 (ip), vehicle: carboxymethylcellulose (CMC) 112 % of control

CCOC(=O)C(Cc1c(C)c(OC)c(CC(C(=O)OCC)C(=O)OCC)c(C)c1OC)C(=O)OCC
inactive: [9] 101 % of control | [4] 93 % of control | [10] 97 % of control | [5] 88 % of control | [11] 92 % of control | [6] 90 % of control

c1ccc(N2CCN(c3c4ccccc4nc4ccccc34)CC2)cc1
inactive: dose: 75.0 mg/kg/injection, schedule: Q01DX001 (ip), vehicle: Klucel (hydroxypropylcellulose) (HPC) 105 % of control | dose: 150.0 mg/kg/injection, schedule: Q01DX001 (ip), vehicle: Klucel (hydroxypropylcellulose) (HPC) 105 % of control | dose: 300.0 mg/kg/injection, schedule: Q01DX001 (ip), vehicle: Klucel (hydroxypropylcellulose) (HPC) 96 % of control

CCOC(=O)c1cc(C=O)oc1C
inactive: [7] 91 % of control | [8] 97 % of control | [12] 103 % of control | [13] 95 % of control | [14] 93 % of control | [15] 90 % of control

O=C(Nc1cc([N+](=O)[O-])ccc1F)Nc1ccccc1C(F)(F)F
inactive: [13] 96 % of control | [14] 94 % of control | [15] 91 % of control

CC1=N/C(=C/c2ccccc2)C(=O)O1
inactive: [4] 97 % of control | [5] 92 % of control | [6] 98 % of control

O=[N+]([O-])c1ccc(Cl)c(O)c1
inactive: dose: 25.0 mg/kg/injection, schedule: Q01DX009 (ip), vehicle: carboxymethylcellulose (CMC) 108 % of control | dose: 50.0 mg/kg/injection, schedule: Q01DX009 (ip), vehicle: carboxymethylcellulose (CMC) 106 % of control | dose: 100.0 mg/kg/injection, schedule: Q01DX009 (ip), vehicle: carboxymethylcellulose (CMC) 97 % of control

Clc1ccc(Oc2ccc(N3C=Nc4ccc(Oc5ccc(Cl)cc5)cc4C3)cc2)cc1
inactive: [9] 98 % of control | [4] 97 % of control | [10] 96 % of control | [5] 94 % of control | [11] 93 % of control | [6] 89 % of control

CC(C)NNC(=O)C(C)O (stereo not given)
inactive: dose: 25.0 mg/kg/injection, schedule: Q01DX009 (ip), vehicle: saline 93 % of control | dose: 25.0 mg/kg/injection, schedule: Q04DX003 (ip), vehicle: saline 109 % of control | [1] 90 % of control | dose: 50.0 mg/kg/injection, schedule: Q04DX003 (ip), vehicle: saline 96 % of control | [2] 97 % of control | dose: 100.0 mg/kg/injection, schedule: Q04DX003 (ip), vehicle: saline 93 % of control | [3] 87 % of control | dose: 200.0 mg/kg/injection, schedule: Q04DX003 (ip), vehicle: saline 112 % of control | dose: 400.0 mg/kg/injection, schedule: Q01DX009 (ip), vehicle: saline 95 % of control | dose: 400.0 mg/kg/injection, schedule: Q04DX003 (ip), vehicle: saline 96 % of control

COC(=O)c1ccccc1N=NNc1ccccc1-c1nc(N)nc(N)n1
inactive: [12] 95 % of control | [13] 103 % of control | dose: 200.0 mg/kg/injection, schedule: Q01DX009 (ip), vehicle: Klucel (hydroxypropylcellulose) (HPC) 104 % of control | [14] 106 % of control | dose: 400.0 mg/kg/injection, schedule: Q01DX009 (ip), vehicle: Klucel (hydroxypropylcellulose) (HPC) 98 % of control | [15] 95 % of control

Nc1cccnc1Cl
inactive: dose: 100.0 mg/kg/injection, schedule: Q01DX009 (ip), vehicle: alcohol 100 % of control | dose: 100.0 mg/kg/injection, schedule: Q04DX003 (ip), vehicle: other 92 % of control | dose: 200.0 mg/kg/injection, schedule: Q01DX009 (ip), vehicle: alcohol 96 % of control | dose: 200.0 mg/kg/injection, schedule: Q04DX003 (ip), vehicle: other 90 % of control | dose: 400.0 mg/kg/injection, schedule: Q01DX009 (ip), vehicle: alcohol 96 % of control | dose: 400.0 mg/kg/injection, schedule: Q04DX003 (ip), vehicle: other 93 % of control
